This is an account of results in patent US20150376198A1, “MODULATORS OF VASOPRESSIN RECEPTORS WITH THERAPEUTIC POTENTIAL” (priority 2013, published 2015).

Like-named read-outs stand apart in the source and are kept apart here. Some results are limits rather than exact numbers.

One assay deals with T1, human V1a receptor (Homo sapiens, UniProt P37288).
T1 construct: expressed in transfected cells; host or cells: CHO cells (G418-selected hV1a cell line)
The assay can be described thus: Vasopressin V1a receptor binding assay (3H-AVP competition, CHO cells). The following applies: for inhibition at 10 µM: read-out: V1A binding, mean % inhibition. Here is the method:
(§1) Data represent Ki values (nM) or mean % inhibition (indicated as %) for exemplary compounds of formula (I) tested versus receptor subtypes.
(§2) The default concentration for primary binding experiments was 10 μM.
Vasopressin V1a Receptor Binding Assay.
A cell line expressing the human Via receptor in CHO cells is used. The hV1a cDNA sequence is described by Thibonnier et al., (1994), and the expression method is the same as described by Morel et al. (1992). The hV1a cell line is grown in alpha-MEM with 10% fetal bovine serum and 250 ug/ml G418 (Gibco, Grand Island, N.Y., USA). For competitive binding assay, hV1a cells are plated into 6-well culture plate at 1:10 dilution from a confluency flask, and maintained in culture for at least two days. Culture medium is then removed, cells washed with 2 ml binding buffer (35 mM Hepes, 0.25% BSA, 1× DMEM, PH=7.0). To each well, 990 μl binding buffer containing 1 nM 3H-AVP is added, followed by 10 μl series diluted Example compounds dissolved in DMSO. All incubations are done in triplicate and dose-inhibition curves consisting of total binding (DMSO) and 5 concentrations (0.1, 1.0, 10, 100, and 1000 nM) of test agents encompassing the IC50. 100 nM cold AVP (Sigma) is used to assess non-specific binding. Cells are incubated for 45 minutes at 37° C., assay mixture is removed and each well is washed three times with PBS (pH=7.4). 1 ml 2% SDS was added per well, plates were let sit for 30 minutes. The whole content of a well is transferred to a scintillation vial. Each well is rinsed with 0.5 ml PBS which is then added to the corresponding vial. Scintillation fluid (Ecoscint) is then added at 3 ml per vial. Samples are counted in a liquid scintillation counter (Beckman LS3801). IC50 values are calculated by Prism Curve fitting software.

In another assay the target is V2 receptor (Homo sapiens, UniProt P30518). Nature of the assay: V2 receptor binding (primary binding at 10 μM and Ki). The following applies: for inhibition at 10 µM: read-out: V2 binding, mean % inhibition. As for the experimental part:
as §1, §2
(§3) See Examples for further details.

The next assay deals with T2, OT receptor (Homo sapiens, UniProt P30559).
T2 sequence (P30559 1-389): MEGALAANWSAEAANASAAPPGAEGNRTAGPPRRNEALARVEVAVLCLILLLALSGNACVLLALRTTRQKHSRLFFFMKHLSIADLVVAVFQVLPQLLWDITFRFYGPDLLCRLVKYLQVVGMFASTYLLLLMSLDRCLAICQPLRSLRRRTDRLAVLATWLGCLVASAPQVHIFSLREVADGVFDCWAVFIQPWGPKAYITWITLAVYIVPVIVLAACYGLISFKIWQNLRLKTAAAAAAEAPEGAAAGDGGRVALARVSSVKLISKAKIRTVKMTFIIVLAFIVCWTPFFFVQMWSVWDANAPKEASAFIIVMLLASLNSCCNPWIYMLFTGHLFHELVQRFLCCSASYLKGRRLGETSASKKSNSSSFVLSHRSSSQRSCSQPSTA
Nature of the assay: OT receptor binding (primary binding at 10 μM and Ki). Particulars: for inhibition at 10 µM: read-out: OT binding, mean % inhibition. As for the experimental part:
as §2, §3

Chain of V2 receptor (P30518 whole entry): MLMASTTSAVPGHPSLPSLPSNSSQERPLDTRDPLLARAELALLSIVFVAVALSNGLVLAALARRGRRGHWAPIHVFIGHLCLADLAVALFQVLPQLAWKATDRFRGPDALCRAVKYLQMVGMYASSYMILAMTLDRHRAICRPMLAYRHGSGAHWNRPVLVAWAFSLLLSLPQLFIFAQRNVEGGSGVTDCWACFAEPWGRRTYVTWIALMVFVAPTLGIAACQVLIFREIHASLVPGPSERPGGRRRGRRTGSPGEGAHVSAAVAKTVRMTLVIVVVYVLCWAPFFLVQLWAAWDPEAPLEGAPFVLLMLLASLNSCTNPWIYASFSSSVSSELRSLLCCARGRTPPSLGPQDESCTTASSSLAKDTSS
T1 sequence (P37288 whole entry): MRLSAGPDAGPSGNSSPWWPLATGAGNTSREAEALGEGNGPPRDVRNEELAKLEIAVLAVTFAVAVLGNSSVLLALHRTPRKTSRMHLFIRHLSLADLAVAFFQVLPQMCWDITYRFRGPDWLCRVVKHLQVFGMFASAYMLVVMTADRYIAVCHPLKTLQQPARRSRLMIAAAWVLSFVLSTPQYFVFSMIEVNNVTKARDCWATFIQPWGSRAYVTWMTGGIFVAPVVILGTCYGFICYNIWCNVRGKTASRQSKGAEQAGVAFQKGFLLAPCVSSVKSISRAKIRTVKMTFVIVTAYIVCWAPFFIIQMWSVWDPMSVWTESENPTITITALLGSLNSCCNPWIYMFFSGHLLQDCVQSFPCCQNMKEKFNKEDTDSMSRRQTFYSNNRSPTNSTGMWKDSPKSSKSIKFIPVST

As usually defined, the Ki is the dissociation constant of the complex between target and ligand, obtained from inhibition or displacement. A word on the inhibition: it is the change of the read-out against control, counted positive when it falls. Regarding `CCN(C(=O)N1CCN(c2ccccc2C)CC1)c1ccc(OC)cc1` [Compound 2], the inhibitory constant (Ki) at human V1a receptor is 10 nM; on OT receptor (read-out: OT binding Ki), 13 nM. At V2 receptor (at 10 μM), the inhibition at 10 µM is 33.6%.

For the molecule `COc1ccc(N(CC2CC2)C(=O)N2CCN(c3ccccc3C)CC2)cc1` [Compound 3], the Ki turned out to be 0.9 nM on human V1a receptor, 708 nM on V2 receptor and 1 nM at OT receptor (read-out: OT binding Ki).

For `COCCN(C(=O)N1CCN(c2ccccc2C)CC1)c1ccc(OC)cc1` [Compound 4], the Ki at human V1a receptor worked out at 10 nM; on OT receptor (read-out: OT binding Ki) it was 21 nM. Further, on V2 receptor (at 10 μM), the inhibition at 10 µM came to 24.5%.

Turning to `Cc1ccccc1N1CCN(C(=O)N(CC2CC2)CC2CCCO2)CC1` (stereo not drawn) [Compound 5], the values for the Ki on human V1a receptor and on OT receptor (read-out: OT binding Ki) were 785 nM and 326 nM, respectively. In addition, the inhibition at 10 µM at V2 receptor (at 10 μM) came out at 17.7%.

As for `CCN(C(=O)N1CCN(c2ncccc2C(F)(F)F)CC1)c1ccc(OC)cc1` [Compound 6], the Ki at human V1a receptor is 113 nM; at OT receptor (read-out: OT binding Ki) it was 45 nM. Besides, the inhibition at 10 µM on V2 receptor (at 10 μM) stood at 33%.

Turning to `CCN(C(=O)N1CCN(C(=O)OC(C)(C)C)CC1)c1ccc(OC)cc1` [Compound 10], the inhibition at 10 µM on human V1a receptor was determined as 2.2%; on OT receptor (at 10 μM), 17.1%.

Turning to `Cc1cc(C(=O)N(CC2CC2)CC2CCCO2)ccc1CNC(=O)N1CCN(Cc2cc(O)cc(O)c2)CC1` (stereo not drawn) [Compound 13], the inhibition at 10 µM at V2 receptor (at 10 μM) came out at 13.6%; at OT receptor (at 10 μM), 16.1%.

For the molecule `COc1ccc(-n2c(C)nnc2-c2ccc(CNC(=O)N3CCN(Cc4cc(O)cc(O)c4)CC3)c(C)c2)cn1` [Compound 14], the inhibition at 10 µM at V2 receptor (at 10 μM) worked out at 5.8%; on OT receptor (at 10 μM), 19.6%.

For the molecule `O=C(OCc1ccccc1)N1CCC(C(=O)N(CC2CC2)CC2CCCO2)CC1` (stereo not drawn) [Compound 15], the inhibition at 10 µM worked out at 19% at human V1a receptor, 12.8% at V2 receptor (at 10 μM) and 2.8% on OT receptor (at 10 μM).

For the molecule `CCN(C(=O)N1CCN(c2ncccc2Cl)CC1)c1ccc(OC)cc1` [Compound 16], the figures for the Ki on human V1a receptor and at OT receptor (read-out: OT binding Ki) were 1160 nM and 2320 nM, respectively. In addition, the inhibition at 10 µM on V2 receptor (at 10 μM) was found to be 12.7%.

For the molecule `CCN(C(=O)N1CCN(c2ccccn2)CC1)c1ccc(OC)cc1` [Compound 17], the values for the Ki on human V1a receptor and on OT receptor (read-out: OT binding Ki) were 79 nM and 118 nM, respectively. At V2 receptor (at 10 μM), the inhibition at 10 µM turned out to be 17.9%.

Turning to `CCN(C(=O)C1CCN(C(=O)OCc2ccccc2)CC1)c1ccc(OC)cc1` [Compound 18], the inhibition at 10 µM on human V1a receptor was determined as 19%; at V2 receptor, 12.8%; at OT receptor, 2.8%.

For the molecule `CCN(C(=O)N1CCN(c2ncccc2C#N)CC1)c1ccc(OC)cc1` [Compound 19], the results for the Ki at human V1a receptor and on OT receptor (read-out: OT binding Ki) were 880 nM and 757 nM, respectively. At V2 receptor (at 10 μM), the inhibition at 10 µM came to 5.7%.

With `CCN(C(=O)N1CCCN(c2ncccc2C(F)(F)F)CC1)c1ccc(OC)cc1` [Compound 20], the Ki at human V1a receptor is 851 nM; at OT receptor (read-out: OT binding Ki) it was 329 nM. Moreover, on V2 receptor (at 10 μM), the inhibition at 10 µM worked out at 33%.

Turning to `CCN(C(=O)N1CCN(c2ncccc2C)CC1)c1ccc(OC)cc1` [Compound 21], the Ki at human V1a receptor is 116 nM; at OT receptor (read-out: OT binding Ki), 204 nM. On V2 receptor (at 10 μM), the inhibition at 10 µM came out at 24.3%.

For `CCN(C(=O)N1CCN(c2ncccn2)CC1)c1ccc(OC)cc1` [Compound 22], the Ki on human V1a receptor (read-out: V1A binding Ki) stood at 1590 nM. Further, the values for the inhibition at 10 µM at V2 receptor (at 10 μM) and at OT receptor (at 10 μM) were 6.6% and 27.7%, respectively.

Consider `CCN(C(=O)C1CCN(c2ncccc2C(F)(F)F)CC1)c1ccc(OC)cc1` [Compound 24], for which the Ki on human V1a receptor amounted to 1170 nM; on OT receptor (read-out: OT binding Ki), 265 nM. In addition, on V2 receptor (at 10 μM), the inhibition at 10 µM is 23.3%.

For `CCN(C(=O)N1CCN(C(=O)C23CC4CC(CC(C4)C2)C3)CC1)c1ccc(OC)cc1` [Compound 25], the Ki at human V1a receptor (read-out: V1A binding Ki) worked out at 3880 nM. For the same molecule, the results for the inhibition at 10 µM at V2 receptor (at 10 μM) and at OT receptor (at 10 μM) were 40.4% and 40.7%, respectively.

With `Cc1ccc(N(CC2CC2)C(=O)N2CCN(c3ccccc3C)CC2)cc1` [Compound 26], the inhibition constant (Ki) came to 3 nM at human V1a receptor, 1860 nM at V2 receptor and 4.8 nM at OT receptor (read-out: OT binding Ki).

With `Cc1ccccc1N1CCN(C(=O)N(CC2CC2)c2ccc(Cl)cc2)CC1` [Compound 27], the values for the Ki on human V1a receptor, on V2 receptor and on OT receptor (read-out: OT binding Ki) were 1 nM, 3780 nM and 2.3 nM, respectively.

Regarding `COc1ccccc1N(CC1CC1)C(=O)N1CCN(c2ccccc2C)CC1` [Compound 28], the values for the Ki at human V1a receptor, on V2 receptor and on OT receptor (read-out: OT binding Ki) were 107 nM, 5010 nM and 51 nM, respectively.

In the case of `Cc1ccccc1N1CCN(C(=O)N(CC2CC2)c2ccc(OC(F)(F)F)cc2)CC1` [Compound 29], the Ki is 12 nM on human V1a receptor, 159 nM at V2 receptor and 61 nM on OT receptor (read-out: OT binding Ki).

In the case of `COc1ccc(N(CC2CC2)C(=O)N2CCN(c3ccccc3C(F)(F)F)CC2)cc1` [Compound 30], the figures for the Ki on human V1a receptor, at V2 receptor and at OT receptor (read-out: OT binding Ki) were 11 nM, 75 nM and 2.3 nM, respectively.

For `COc1ccc(N(CC2CC2)C(=O)N2CCN(c3cc(Cl)ccc3C)CC2)cc1` [Compound 31], the Ki on human V1a receptor worked out at 5 nM; at V2 receptor it was 7340 nM; at OT receptor (read-out: OT binding Ki) it was 6 nM.

With `COc1ccccc1N1CCN(C(=O)N(CC2CC2)c2ccc(OC(F)(F)F)cc2)CC1` [Compound 32], the Ki at human V1a receptor worked out at 11 nM; at V2 receptor it was 1700 nM; on OT receptor (read-out: OT binding Ki), 2.3 nM.

With `COc1ccc(N(CC2CC2)C(=O)N2CCN(c3ncc(Cl)cc3Cl)CC2)cc1` [Compound 33], the Ki was determined as 3 nM on human V1a receptor, 205 nM at V2 receptor and 4.1 nM at OT receptor (read-out: OT binding Ki).

With `COc1ccc(N(CC2CC2)C(=O)C2CCN(Cc3ccccc3C(F)(F)F)C2)cc1` (stereo not drawn) [Compound 34], the Ki on human V1a receptor is 19 nM; on V2 receptor, 542 nM; at OT receptor it was 24.5 nM.

With `COc1ccc(N(CC2CC2)C(=O)C2CCN(Cc3ccccc3Cl)C2)cc1` (stereo not drawn) [Compound 35], the results for the Ki on human V1a receptor and on OT receptor (read-out: OT binding Ki) were 71 nM and 37.4 nM, respectively. In addition, the inhibition at 10 µM at V2 receptor (at 10 μM) was below 50%.
